# Measurements as given in patent publication US7863235B2, “Method of activating α-amylase with oxidizing agents” (Kao Corporation, priority 2004, dated 2011).
# Test system: Duramyl 60T (α-amylase)
# Assay: Activation of Duramyl 60T by types of oxidizing agents (phadebas method)
# Type: biochemical
# Details: activity of Duramyl 60T (a1) after contact with oxidizing agent powder (b2), ratio 10/1; 25° C., 8 g/m^3, 30 minutes
# Protocol: One tablet from Neo, Amylase Test “Daiichi” (product number: 701501-005, available from Daiichi Pure Chemicals Co., Ltd.) was added to 5 mL buffer (Britton-Robinson's Buffer, pH 8.5, 50 mM (Koichi Anan et al., Fundamental Biochemical Experimental Method 6 [in Japanese], p. 277, Maruzen Co., Ltd.)) and stirred for about 10 seconds, then 1 mL enzyme solution diluted with 2 mM aqueous calcium chloride was added, and the mixture was reacted at 50° C. for 15 minutes. 1 mL of 0.5 N aqueous sodium hydroxide was added to the solution under stirring to terminate the reaction, and then the reaction solution was centrifuged (400×g, 5 minutes) to precipitate insoluble components, and the supernatant thus obtained by centrifugation was measured for absorbance at 620 nm.
# One tablet from Neo, Amylase Test “Daiichi” was added to 5 mL buffer (Britton-Robinson's Buffer, pH 8.5, 50 mM (Koichi Anan et al., Fundamental Biochemical Experimental Method 6 [in Japanese], p. 277, Maruzen Co., Ltd.)) and stirred for about 10 seconds. […] The supernatant thus obtained by centrifugation was measured for absorbance at 620 nm.
# The activity of amylase was calculated from the difference in absorbance between (1) and (2) in a calibration curve as a standard of an International Unit sample enclosed with Neo, Amylase Test “Daiichi”. […]
row,Compound,Relative activity (%)
1,"O.O.O.O.O=BO[O-].[Na+] [Sodium perborate•4H2O, sodium perborate.4H2O]",140%
2,"O.[Na+].[O-][Cl+3]([O-])([O-])[O-] [Sodium perchlorate•1H2O, sodium perchlorate.1H2O]",120%
